# Laboratory results published in PubChem BioAssay (NCI).
#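 Cultured in 96-well plates, cells were exposed to test compound for 48 hours across five concentrations. TGI: concentration producing complete growth inhibition.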
# What was measured:
# Assay in all cases: NCI anticancer screen, dose series, 48 h
# BT-549 breast = test system: BT-549 breast
# SNB-75 CNS = test system: SNB-75 CNS
# NCI/ADR-RES ovarian = test system: NCI/ADR-RES ovarian
# UO-31 renal = test system: UO-31 renal
# 786-0 renal = test system: 786-0 renal
# SK-MEL-28 melanoma = test system: SK-MEL-28 melanoma
# M14 melanoma = test system: M14 melanoma
# MOLT-4 leukemia = test system: MOLT-4 leukemia
# UACC-257 melanoma = test system: UACC-257 melanoma
# HOP-92 NSCLC = test system: HOP-92 NSCLC
# MALME-3M melanoma = test system: MALME-3M melanoma
# HCT-116 colon = test system: HCT-116 colon
# KM12 colon = test system: KM12 colon
# MDA-MB-231 breast = test system: MDA-MB-231 breast
# MDA-MB-435 = test system: MDA-MB-435
# OVCAR-4 ovarian = test system: OVCAR-4 ovarian
# SK-OV-3 ovarian = test system: SK-OV-3 ovarian
# DU-145 prostate = test system: DU-145 prostate
# OVCAR-3 ovarian = test system: OVCAR-3 ovarian
# SN12C renal = test system: SN12C renal
# SF-268 CNS = test system: SF-268 CNS
# SR leukemia = test system: SR leukemia
# RPMI-8226 leukemia = test system: RPMI-8226 leukemia
# IGROV1 ovarian = test system: IGROV1 ovarian
# SK-MEL-2 melanoma = test system: SK-MEL-2 melanoma
# CCRF-CEM leukemia = test system: CCRF-CEM leukemia
# RXF 393 renal = test system: RXF 393 renal
# HCC-2998 colon = test system: HCC-2998 colon
# PC-3 prostate = test system: PC-3 prostate
# COLO 205 colon = test system: COLO 205 colon
# A549 NSCLC = test system: A549 NSCLC
# SW-620 colon = test system: SW-620 colon
# NCI-H460 lung = test system: NCI-H460 lung
# NCI-H23 lung = test system: NCI-H23 lung
# K-562 leukemia = test system: K-562 leukemia
# HCT-15 colon = test system: HCT-15 colon
# UACC-62 melanoma = test system: UACC-62 melanoma
# EKVX NSCLC = test system: EKVX NSCLC
# MCF7 breast = test system: MCF7 breast
# OVCAR-5 ovarian = test system: OVCAR-5 ovarian
# TK-10 renal = test system: TK-10 renal
# U251 CNS = test system: U251 CNS
# A498 renal = test system: A498 renal
# ACHN renal = test system: ACHN renal
# CAKI-1 renal = test system: CAKI-1 renal
# SF-295 CNS = test system: SF-295 CNS
# HT29 colon = test system: HT29 colon
# SNB-19 CNS = test system: SNB-19 CNS
# NCI-H226 lung = test system: NCI-H226 lung
# LOX IMVI melanoma = test system: LOX IMVI melanoma
# HS 578T breast = test system: HS 578T breast
# HOP-62 NSCLC = test system: HOP-62 NSCLC
# NCI-H522 lung = test system: NCI-H522 lung
# MDA-N = test system: MDA-N
# T-47D breast = test system: T-47D breast
# SK-MEL-5 melanoma = test system: SK-MEL-5 melanoma
# OVCAR-8 ovarian = test system: OVCAR-8 ovarian
# SF-539 CNS = test system: SF-539 CNS
# HL-60(TB) leukemia = test system: HL-60(TB) leukemia
smiles,measurement,setting,value
Cc1cccc2nc3cccc(C(=O)NCCC[N+](C)(CCCNC(=O)c4cccc5nc6cccc(C)c6nc45)Cc4ccc([N+](=O)[O-])n4C)c3nc12,TGI,BT-549 breast,> 100 µM
same,TGI,SNB-75 CNS,> 100 µM
same,TGI,NCI/ADR-RES ovarian,> 100 µM
same,TGI,UO-31 renal,> 100 µM
same,TGI,786-0 renal,> 100 µM
same,TGI,SK-MEL-28 melanoma,> 100 µM
same,TGI,M14 melanoma,> 100 µM
same,TGI,MOLT-4 leukemia,26.2 µM
same,TGI,UACC-257 melanoma,> 100 µM
same,TGI,HOP-92 NSCLC,> 100 µM
same,TGI,MALME-3M melanoma,> 100 µM
same,TGI,HCT-116 colon,> 100 µM
same,TGI,KM12 colon,> 100 µM
same,TGI,MDA-MB-231 breast,> 100 µM
same,TGI,MDA-MB-435,> 100 µM
same,TGI,OVCAR-4 ovarian,> 100 µM
same,TGI,SK-OV-3 ovarian,> 100 µM
same,TGI,DU-145 prostate,> 100 µM
same,TGI,OVCAR-3 ovarian,> 100 µM
same,TGI,SN12C renal,> 100 µM
same,TGI,SF-268 CNS,> 100 µM
same,TGI,SR leukemia,> 100 µM
same,TGI,RPMI-8226 leukemia,> 100 µM
same,TGI,IGROV1 ovarian,> 100 µM
same,TGI,SK-MEL-2 melanoma,> 100 µM
same,TGI,CCRF-CEM leukemia,> 26.9 µM
same,TGI,RXF 393 renal,> 100 µM
same,TGI,HCC-2998 colon,> 100 µM
same,TGI,PC-3 prostate,> 100 µM
same,TGI,COLO 205 colon,> 100 µM
same,TGI,A549 NSCLC,> 100 µM
same,TGI,SW-620 colon,> 100 µM
same,TGI,NCI-H460 lung,> 100 µM
same,TGI,NCI-H23 lung,> 100 µM
same,TGI,K-562 leukemia,> 100 µM
same,TGI,HCT-15 colon,> 100 µM
same,TGI,UACC-62 melanoma,> 100 µM
same,TGI,EKVX NSCLC,> 100 µM
same,TGI,MCF7 breast,> 100 µM
same,TGI,OVCAR-5 ovarian,> 100 µM
same,TGI,TK-10 renal,> 100 µM
same,TGI,U251 CNS,> 100 µM
same,TGI,A498 renal,> 100 µM
same,TGI,ACHN renal,> 100 µM
same,TGI,CAKI-1 renal,> 100 µM
same,TGI,SF-295 CNS,> 100 µM
same,TGI,HT29 colon,> 100 µM
same,TGI,SNB-19 CNS,> 100 µM
same,TGI,NCI-H226 lung,> 100 µM
same,TGI,LOX IMVI melanoma,> 100 µM
same,TGI,HS 578T breast,> 100 µM
same,TGI,HOP-62 NSCLC,> 100 µM
same,TGI,NCI-H522 lung,> 100 µM
same,TGI,MDA-N,> 100 µM
same,TGI,T-47D breast,> 100 µM
same,TGI,SK-MEL-5 melanoma,> 100 µM
same,TGI,OVCAR-8 ovarian,> 100 µM
Clc1c2ncccc2cc2n[nH]nc12,TGI,BT-549 breast,> 100 µM
same,TGI,SNB-75 CNS,> 100 µM
same,TGI,NCI/ADR-RES ovarian,> 100 µM
same,TGI,UO-31 renal,> 100 µM
same,TGI,786-0 renal,> 100 µM
same,TGI,SK-MEL-28 melanoma,> 100 µM
same,TGI,M14 melanoma,> 100 µM
same,TGI,MOLT-4 leukemia,77.1 µM
same,TGI,UACC-257 melanoma,> 100 µM
same,TGI,HOP-92 NSCLC,> 100 µM
same,TGI,MALME-3M melanoma,> 100 µM
same,TGI,HCT-116 colon,> 100 µM
same,TGI,KM12 colon,> 100 µM
same,TGI,SF-539 CNS,> 100 µM
same,TGI,MDA-MB-231 breast,> 100 µM
same,TGI,MDA-MB-435,> 100 µM
same,TGI,OVCAR-4 ovarian,> 100 µM
same,TGI,SK-OV-3 ovarian,> 100 µM
same,TGI,DU-145 prostate,> 100 µM
same,TGI,OVCAR-3 ovarian,> 100 µM
same,TGI,SN12C renal,> 100 µM
same,TGI,SF-268 CNS,> 100 µM
same,TGI,SR leukemia,> 100 µM
same,TGI,RPMI-8226 leukemia,> 100 µM
same,TGI,IGROV1 ovarian,> 100 µM
same,TGI,SK-MEL-2 melanoma,> 100 µM
same,TGI,CCRF-CEM leukemia,> 100 µM
same,TGI,RXF 393 renal,> 100 µM
same,TGI,HCC-2998 colon,> 100 µM
same,TGI,PC-3 prostate,> 100 µM
same,TGI,COLO 205 colon,> 100 µM
same,TGI,A549 NSCLC,> 100 µM
same,TGI,SW-620 colon,> 100 µM
same,TGI,NCI-H460 lung,> 100 µM
same,TGI,NCI-H23 lung,> 100 µM
same,TGI,K-562 leukemia,> 100 µM
same,TGI,HCT-15 colon,> 100 µM
same,TGI,UACC-62 melanoma,> 100 µM
same,TGI,EKVX NSCLC,> 100 µM
same,TGI,MCF7 breast,> 100 µM
same,TGI,OVCAR-5 ovarian,> 100 µM
same,TGI,TK-10 renal,> 100 µM
same,TGI,U251 CNS,> 100 µM
same,TGI,A498 renal,> 100 µM
same,TGI,ACHN renal,> 100 µM
same,TGI,CAKI-1 renal,> 100 µM
same,TGI,SF-295 CNS,> 100 µM
same,TGI,HL-60(TB) leukemia,> 100 µM
same,TGI,HT29 colon,> 100 µM
same,TGI,SNB-19 CNS,> 100 µM
same,TGI,NCI-H226 lung,> 100 µM
same,TGI,HS 578T breast,> 100 µM
same,TGI,HOP-62 NSCLC,> 100 µM
same,TGI,NCI-H522 lung,> 100 µM
same,TGI,MDA-N,> 100 µM
same,TGI,T-47D breast,> 100 µM
same,TGI,SK-MEL-5 melanoma,> 100 µM
same,TGI,OVCAR-8 ovarian,> 100 µM
